Test results as given in ChEMBL document CHEMBL3091439, “Further discovery of caffeic acid derivatives as novel influenza neuraminidase inhibitors” (Bioorg Med Chem, 2013).

Experiments:
Neuraminidase [1] = target: T1, Neuraminidase (Influenza A virus, UniProt B4URF0); test: Inhibition of influenza A virus A/duck/China/QJ/01(H5N1) neuraminidase using 4-MU-NANA as substrate incubated for 5 mins prior to substrate addition measured after 30 to 60 mins by fluorescence assay
Influenza A virus = test: Antiviral activity against Influenza A virus (A/Chicken/Shandong/LY/08(H9N2)) infected in chicken embryo fibroblasts assessed as protection against virus-induced cytopathic effect preincubated for 1 hr followed by viral-infection measured after 2 days by MTS assay; assay type: functional, organism-based, Influenza A virus (A/chicken/Shandong/LY/2008(H9N2))
[2] = Cytotoxicity against chicken embryo fibroblasts infected with Influenza A virus (A/Chicken/Shandong/LY/08(H9N2)) preincubated for 1 hr followed by viral-infection measured after 2 days by MTS assay; assay type: cell-based, Gallus gallus, Fibroblast
Neuraminidase [3] = target: T1, Neuraminidase; test: Inhibition of Influenza A virus (A/Chicken/Shandong/LY/08(H9N2)) neuraminidase using 4-MU-NANA as substrate incubated for 5 mins prior to substrate addition measured after 30 to 60 mins by fluorescence assay; set-up: species or system Influenza A virus (A/chicken/Shandong/LY/2008(H9N2))
Neuraminidase [4] = target: T1, Neuraminidase; test: Non competitive inhibition of influenza A virus A/duck/China/QJ/01(H5N1) neuraminidase using 4-MU-NANA as substrate incubated for 5 mins prior to substrate addition measured after 30 to 60 mins by Lineweaver-Burk plot analysis
Neuraminidase [5] = target: T1, Neuraminidase; test: Non competitive inhibition of Influenza A virus (A/Chicken/Shandong/LY/08(H9N2)) neuraminidase using 4-MU-NANA as substrate incubated for 5 mins prior to substrate addition measured after 30 to 60 mins by Lineweaver-Burk plot analysis; set-up: species or system Influenza A virus (A/chicken/Shandong/LY/2008(H9N2))

Compound	IC50 (Neuraminidase [1]) [µM]	EC50 (Influenza A virus) [µM]	CC50 at 48 h [2] [µM]	IC50 (Neuraminidase [3]) [µM]	Ki (Neuraminidase [4]) [µM]	Ki (Neuraminidase [5]) [µM]
CCC(CC)C(=O)Nc1cc(NC(=O)C(C)C)c(NC(=O)/C=C/c2ccc(O)c(O)c2)cc1OCC(=O)O	14.2	14.5	> 100	5.8	–	–
CCC(CC)C(=O)Nc1cc(NC(=N)N)ccc1OCC(=O)O	–	–	–	> 100	–	–
CCC(CC)C(=O)Nc1cc(NC(=O)C(C)C)c(N)cc1OCC(=O)O	61.2	–	–	54.3	–	–
CCC(CC)C(=O)Nc1cc(NC(=O)[C@H](Cc2ccccc2)NC(=O)/C=C/c2ccc(O)c(O)c2)ccc1OCC(=O)O	16.2	–	68.3	9.8	–	–
CCC(CC)C(=O)Nc1cc(NC(=O)C(C)C)c(NC(=O)CCc2ccc(O)c(O)c2)cc1OCC(=O)O	38.2	–	–	14.2	–	–
CCC(CC)C(=O)Nc1cc(NC(C)=O)c(NC(=N)N)cc1OCC(=O)O	75.8	–	–	69.1	–	–
CCC(CC)C(=O)Nc1cc(NC(=O)CNC(=O)/C=C/c2ccc(O)c(O)c2)ccc1OCC(=O)O	17.6	33.6	> 100	9.2	–	–
CCC(CC)C(=O)Nc1cc(NC(=O)[C@H](C)NC(=O)/C=C/c2ccc(O)c(O)c2)ccc1OCC(=O)O	16.1	25.4	> 100	7.9	9.5	–
CCC(CC)C(=O)Nc1ccc(OCC(=O)O)c(NC(=O)C(CC)CC)c1	–	–	–	> 100	–	–
C#CCNC(=O)Nc1ccc(OCC(=O)O)c(NC(=O)C(CC)CC)c1	–	–	–	89.8	–	–
CCC(CC)C(=O)Nc1cc(N)ccc1OCC(=O)O	–	–	–	> 100	–	–
CCC(CC)C(=O)Nc1cc(NC(=O)C(C)C)c(NC(=N)N)cc1OCC(=O)O	–	–	–	83.2	–	–
CCC(CC)C(=O)Nc1cc(NS(=O)(=O)c2ccc(C)cc2)ccc1OCC(=O)O	86.7	–	–	78.6	–	–
CCC(CC)C(=O)Nc1cc(NC(=O)[C@H](CC(C)C)NC(=O)/C=C/c2ccc(O)c(O)c2)ccc1OCC(=O)O	14	13.5	89.7	8.5	–	–
CCC(CC)C(=O)Nc1cc(NC(=O)NCc2ccccc2)ccc1OCC(=O)O	55.6	–	–	49.7	–	–
CCC(CC)C(=O)Nc1cc(NC(C)=O)c(NC(=O)/C=C/c2ccc(O)c(O)c2)cc1OCC(=O)O	10.7	13.8	> 100	3.2	–	2.7
CCC(CC)CN(C(=O)/C=C/c1ccc(O)c(O)c1)c1ccc(OCC(=O)O)c(NC(=O)C(CC)CC)c1	11.3	56.4	> 100	25.2	–	–
CCC(CC)C(=O)Nc1cc(NC(C)=O)c(NC(=O)CCc2ccc(O)c(O)c2)cc1OCC(=O)O	42.7	–	47.2	15.8	–	–
CCC(CC)C(=O)Nc1cc(N(Cc2cccs2)C(=O)/C=C/c2ccc(O)c(O)c2)ccc1OCC(=O)O	16.4	–	87.6	24.1	–	–
CCC(CC)C(=O)Nc1cc(NC(C)=O)c(N)cc1OCC(=O)O	58.5	–	–	46.4	–	–
CCC(CC)C(=O)Nc1cc(NC(=O)c2ccco2)ccc1OCC(=O)O	–	–	–	> 100	–	–
CCC(CC)C(=O)Nc1cc(NC(=O)N[C@H](CC)CO)ccc1OCC(=O)O	–	–	–	> 100	–	–
CCC(CC)C(=O)Nc1cc(N(Cc2ccccc2)C(=O)/C=C/c2ccc(O)c(O)c2)ccc1OCC(=O)O	11.4	–	78.2	16	32.5	–
CCC(CC)C(=O)Nc1cc(NC(=O)[C@@H](NC(=O)/C=C/c2ccc(O)c(O)c2)C(C)C)ccc1OCC(=O)O	16.6	22.9	70.4	9.4	–	–
